Test results published in US20220053764A1, “METHOD OF CONTROLLING WEEDS” (SUMITOMO CHEMICAL COMPANY, LIMITED, priority 2018, published 2022).
Counter-ions that a name gives are not always drawn.

How the values were obtained:
Type in all cases: in vivo
[1] = system: glyphosate-sensitive Amaranthus palmeri; assay: Herbicidal effect, foliar spray on potted weeds in greenhouse; conditions: rating 0 to 100, 14 days after foliar spray, 200 L/ha
Method: (§1) In a plastic pot filled with soli were seeded glyphosate-resistant Amaranthus palmeri in which the number of copies of EPSPS gene had been increased (produced by Azlin Seed Service) and glyphosate-sensitive Amaranthus palmeri (produced by Azlin Seed Service). The weeds were cultivated in a greenhouse for 18 days, and then an aqueous spray liquid [i.e., a liquid prepared by diluting a predetermined amount of a trifludimoxazin formulation (i.e., an emulsifiable concentrate prepared by mixing 20 parts of trifludimoxazin with 80 parts of a liquid cocktail (i.e., a mixture of 5 parts of cyclohexanone and 1 part of SORPOL 2680X (manufactured by TOHO Chemical Industry Co., Ltd.))) with water containing a spreading agent] was sprayed uniformly from above the weeds at the amount of 200 L/ha using a sprayer. Subsequently, the weeds were allowed to grow in a greenhouse for 14 days, and then the herbicidal effect was examined. As a reference example, the same procedure was carried out, except that the trifludimoxazin formulation was replaced with a predetermined amount of a glyphosate formulation (i.e., a soluble liquid containing 660 g/L of glyphosate potassium salt: “ROUNDUP MAXLOAD” (manufactured by Nissan Chemical Corporation). The results are shown in the table 1.

[2] = system: glyphosate-resistant Amaranthus palmeri in which the number of copies of EPSPS gene had been increased; assay: as above; conditions: rating 0 to 100, 14 days after foliar spray, 200 L/ha
Method: as §1

[3] = system: glyphosate-resistant weeds (Amaranthus palmeri, waterhemp, kochia, marestail, Guernsey fleabane, fleabane, goosegrass, darnel) and volunteer …; assay: Foliar treatment 21 days after seeding, greenhouse pot test (Example 2); conditions: foliar treatment at 6.25, 125, 25, 50, 100 or 150 g/ha; 200 L/ha; fourteen days after the treatment
Method: In a plastic pot filled with soil are seeded glyphosate-resistant Amaranthus palmeri in which the number of copies of EPSPS gene has been increased, glyphosate-resistant waterhemp in which the number of copies of EPSPS gene has been increased, glyphosate-resistant kochia in which the number of copies of EPSPS gene has been increased, marestail which is resistant to glyphosate by involving an ABC transporter, Guernsey fleabane which is resistant to glyphosate by involving an ABC transporter, fleabane which is resistant to glyphosate by involving an ABC transporter, glyphosate-resistant goosegrass having Thr102Ile, glyphosate-resistant goosegrass having Pro106Ser, glyphosate-resistant goosegrass having Pro106Ala, glyphosate-resistant goosegrass having Pro106Leu, glyphosate-resistant goosegrass having Thr102Ile and Pro106Ser, glyphosate-resistant darnel having Thr102Ile, glyphosate-resistant darnel having Pro106Ser, glyphosate-resistant darnel having Pro106Ala, glyphosate-resistant darnel having Pro106Leu, volunteer glyphosate-tolerant soybean, and volunteer glyphosate-tolerant cotton. The plants are cultivated in a greenhouse for 21 days, and then trifludimoxazin is applied to foliage of the plants at application rate of 6.25, […], 25, 50, 100 or 150 g/ha. The amount of a liquid sprayed is 200 L/ha. Subsequently, the plants are cultivated in a greenhouse.

[4] = system: glyphosate-resistant weeds (Amaranthus palmeri, waterhemp, kochia, marestail, Guernsey fleabane, fleabane, goosegrass, darnel) and volunteer …; assay: Soil treatment on day of seeding, greenhouse pot test (Example 1); conditions: soil treatment at 6.25, 12.5, 25, 50, 100 or 150 g/ha; 200 L/ha; twenty-eight days after the treatment
Method: In a plastic pot filled with soil are seeded glyphosate-resistant Amaranthus palmeri in which the number of copies of EPSPS gene has been increased, glyphosate-resistant waterhemp in which the number of copies of EPSPS gene has been increased, glyphosate-resistant kochia in which the number of copies of EPSPS gene has been increased, marestail which is resistant to glyphosate by involving an ABC transporter, Guernsey fleabane which is resistant to glyphosate by involving an ABC transporter, fleabane which is resistant to glyphosate by involving an ABC transporter, glyphosate-resistant goosegrass having Thr102Ile, glyphosate-resistant goosegrass having Pro106Ser, glyphosate-resistant goosegrass having Pro106A1a, glyphosate-resistant goosegrass having Pro106Leu, glyphosate-resistant goosegrass having Thr102Ile and Pro106Ser, glyphosate-resistant darnel having Thr102Ile, glyphosate-resistant darnel having Pro106Ser, glyphosate-resistant darnel having Pro106Ala, glyphosate-resistant darnel having Pro106Leu, volunteer glyphosate-tolerant soybean, and volunteer glyphosate-tolerant cotton. On the same day, the soil is treated with trifludimoxazin at the application rate of 6.25, 12.5, 25, 50, 100 or 150 g/ha. The amount of a liquid sprayed is 200 L/ha. Subsequently, the plants are cultivated in a greenhouse.

SMILES | Effect on glyphosate-sensitive Amaranthus palmeri ([1]; application rate 385 g/ha) | Effect on glyphosate-sensitive Amaranthus palmeri ([1]; application rate 1540 g/ha) | Effect on glyphosate-resistant Amaranthus palmeri ([2]; application rate 1540 g/ha) | Effect on glyphosate-resistant Amaranthus palmeri ([2]; application rate 6160 g/ha) | effect against the weeds [3] | effect against the weeds [4] | Effect on glyphosate-sensitive Amaranthus palmeri ([1]; application rate 6.25 g/ha) | Effect on glyphosate-sensitive Amaranthus palmeri ([1]; application rate 12.5 g/ha) | Effect on glyphosate-sensitive Amaranthus palmeri ([1]; application rate 25 g/ha) | Effect on glyphosate-resistant Amaranthus palmeri ([2]; application rate 6.25 g/ha) | Effect on glyphosate-resistant Amaranthus palmeri ([2]; application rate 12.5 g/ha) | Effect on glyphosate-resistant Amaranthus palmeri ([2]; application rate 25 g/ha)
O=C(O)CNCP(=O)(O)O [Glyphosate potassium salt, glyphosate potassium salt] | 100 | 100 | 20 | 70 | – | – | – | – | – | – | – | –
C#CCN1C(=O)C(F)(F)Oc2cc(F)c(-n3c(=O)n(C)c(=S)n(C)c3=O)cc21 [Trifludimoxazin, trifludimoxazin] | – | – | – | – | significant effect | significant effect | 65 | 70 | 80 | 100 | 100 | 100
